Converted amounts (≈) assume the structure as drawn.
How the values were obtained:
Assay type in all cases: cell-based
E. coli 3327 = test: Broth microdilution MIC (strain enzymes: TEM-1, SHV-12)
K. pneumoniae 3151 = test: Broth microdilution MIC (strain enzymes: SHV-12, TEM-1)
K. pneumoniae KP 8 = test: Broth microdilution MIC (strain enzymes: TEM-10, TEM-1, CTX-M15)
K. pneumoniae ESBL 7 #1 = test: Broth microdilution MIC (strain enzymes: SHV-12, TEM-1)
K. pneumoniae KP 4 = test: Broth microdilution MIC (strain enzymes: SHV-2a, SHV-5, TEM-1)
K. pneumoniae KP 3 = test: Broth microdilution MIC (strain enzymes: SHV-1, TEM-1)
E. coli SI-LP377 = test: microbe, parasite or virus in culture
K. pneumoniae 304487 = test: Broth microdilution MIC (strain enzymes: SHV-12,TEM-1)
E. coli ESBL 5 = test: Broth microdilution MIC (strain enzymes: CTX-M15, TEM-1)
K. pneumoniae BAA 1705 = test: Broth microdilution MIC (strain KPC-producing)
E. coli 2806 = test: Broth microdilution MIC (strain enzymes: SHV-12, TEM-1)
K. pneumoniae KPN 508 = test: Broth microdilution MIC (strain enzymes: SHV-7, TEM-1)
K. pneumoniae 115468 = test: Broth microdilution MIC (strain enzymes: TEM-1)
K. pneumoniae ESBL 7 #2 = test: Broth microdilution MIC (strain enzymes: SHV-12, CTX-M15, TEM-1)
K. oxytoca 176877 = test: Broth microdilution MIC (strain enzymes: SHV-105)
E. coli SI-AIRT-4 = test: Broth microdilution MIC (strain enzymes: TEM-1)
K. pneumoniae 170375 = test: Broth microdilution MIC (strain enzymes: SHV-12, CTX-M15 and TEM-1)
K. pneumoniae KI (KCl) = test: Broth microdilution MIC (strain enzymes: TEM-10)
K. pneumoniae SI-KP NO30 = test: Broth microdilution MIC (strain enzymes: TEM-26b, SHV-60, SHV-26)
[1] = tested on: panel of ESBL-producing Enterobacteriaceae (40 strains); test: Broth microdilution MIC50/MIC90 summary over the panel
K. pneumoniae ESBL 10 = test: Broth microdilution MIC (strain enzymes: SHV-12, TEM-1)
[2] = Klebsiella pneumoniae, alone, read-out: MIC of ceftibuten (CTB)

## Nc1nc(/C(=C/CC(=O)O)C(=O)N[C@@H]2C(=O)N3C(C(=O)O)=CCS[C@H]23)cs1 [Ceftibuten, ceftibuten, reference compound]
E. coli 3327; Escherichia coli, 3327, alone, read-out: MIC of ceftibuten (CTB)
  MIC: 8 µg/mL
K. pneumoniae 3151; Klebsiella pneumoniae, 3151, alone, read-out: MIC of ceftibuten (CTB)
  MIC: > 32 µg/mL
K. pneumoniae KP 8; Klebsiella pneumoniae, KP8, alone, read-out: MIC of ceftibuten (CTB)
  MIC: 0.25 µg/mL
K. pneumoniae ESBL 7 #1; [2]
  MIC: 32 µg/mL
K. pneumoniae KP 4; Klebsiella pneumoniae, KP4, alone, read-out: MIC of ceftibuten (CTB)
  MIC: 32 µg/mL
K. pneumoniae KP 3; Klebsiella pneumoniae, KP3, alone, read-out: MIC of ceftibuten (CTB)
  MIC: 2 µg/mL
E. coli SI-LP377; Escherichia coli, SILP377, read-out: MIC of ceftibuten (CTB)
  MIC: 4 µg/mL
K. pneumoniae 304487; Klebsiella pneumoniae, 304487, alone, read-out: MIC of ceftibuten (CTB)
  MIC: 8 µg/mL
E. coli ESBL 5; Escherichia coli, ESBL5, alone, read-out: MIC of ceftibuten (CTB)
  MIC: > 32 µg/mL
K. pneumoniae BAA 1705; Klebsiella pneumoniae, BAA1705, alone, read-out: MIC of ceftibuten (CTB)
  MIC: 32 µg/mL
E. coli 2806; Escherichia coli, 2806, alone, read-out: MIC of ceftibuten (CTB)
  MIC: 2 µg/mL
K. pneumoniae KPN 508; Klebsiella pneumoniae, KPN508, alone, read-out: MIC of ceftibuten (CTB)
  MIC: 32 µg/mL
K. pneumoniae 115468; Klebsiella pneumoniae, 115468, alone, read-out: MIC of ceftibuten (CTB)
  MIC: 8 µg/mL
K. pneumoniae ESBL 7 #2; [2]
  MIC: > 32 µg/mL
K. oxytoca 176877; Klebsiella oxytoca, 176877, alone, read-out: MIC of ceftibuten (CTB)
  MIC: 4 µg/mL
E. coli SI-AIRT-4; Escherichia coli, SIAIRT4, alone, read-out: MIC of ceftibuten (CTB)
  MIC: 0.5 µg/mL
K. pneumoniae 170375; Klebsiella pneumoniae, 170375, alone, read-out: MIC of ceftibuten (CTB)
  MIC: 32 µg/mL
K. pneumoniae KI (KCl); [2]
  MIC: 1 µg/mL
K. pneumoniae SI-KP NO30; Klebsiella pneumoniae, SIKPNO30, alone, read-out: MIC of ceftibuten (CTB)
  MIC: 0.25 µg/mL
[1]; read-out: Ceftibuten MIC50
  MIC50: 8 µg/mL (≈ 19.5 µM)
[1]; read-out: Ceftibuten MIC90
  MIC90: > 32 µg/mL
K. pneumoniae ESBL 10; Klebsiella pneumoniae, ESBL10, alone, read-out: MIC of ceftibuten (CTB)
  MIC: 16 µg/mL

## O=C(O)[C@H]1/C(=C/CO)O[C@@H]2CC(=O)N21 [Clavulanic acid, clavulanic acid, reference compound]
E. coli 3327; with inhibitor at 4 μg/mL
  MIC of cefalexin (LEX): 0.5 µg/mL
  MIC of cefdinir (CDR): 0.5 µg/mL
  MIC of cefixime (CFM): 2 µg/mL
  MIC of ceftibuten (CTB): 1 µg/mL
K. pneumoniae 3151; with inhibitor at 4 μg/mL
  MIC of cefalexin (LEX): 0.125 µg/mL
  MIC of cefdinir (CDR): 0.125 µg/mL
  MIC of cefixime (CFM): 0.125 µg/mL
  MIC of ceftibuten (CTB): 0.06 µg/mL
K. pneumoniae KP 8; with inhibitor at 4 μg/mL
  MIC of cefalexin (LEX): 0.125 µg/mL
  MIC of cefdinir (CDR): 0.125 µg/mL
  MIC of cefixime (CFM): 0.06 µg/mL
  MIC of ceftibuten (CTB): 0.06 µg/mL
K. pneumoniae ESBL 7 #1; with inhibitor at 4 μg/mL
  MIC of cefalexin (LEX): 0.5 µg/mL
  MIC of cefdinir (CDR): 0.5 µg/mL
  MIC of cefixime (CFM): 0.25 µg/mL
  MIC of ceftibuten (CTB): 0.125 µg/mL
K. pneumoniae KP 4; with inhibitor at 4 μg/mL
  MIC of cefalexin (LEX): 0.125 µg/mL
  MIC of cefdinir (CDR): 0.125 µg/mL
  MIC of cefixime (CFM): 0.125 µg/mL
  MIC of ceftibuten (CTB): 2 µg/mL
K. pneumoniae KP 3; with inhibitor at 4 μg/mL
  MIC of cefalexin (LEX): 1 µg/mL
  MIC of cefdinir (CDR): 1 µg/mL
  MIC of cefixime (CFM): 0.5 µg/mL
  MIC of ceftibuten (CTB): 0.125 µg/mL
E. coli SI-LP377; with inhibitor at 4 μg/mL
  MIC of cefalexin (LEX): 1 µg/mL
  MIC of cefdinir (CDR): 1 µg/mL
  MIC of cefixime (CFM): 0.5 µg/mL
  MIC of ceftibuten (CTB): 0.125 µg/mL
K. pneumoniae 304487; with inhibitor at 4 μg/mL
  MIC of cefalexin (LEX): 0.5 µg/mL
  MIC of cefdinir (CDR): 0.5 µg/mL
  MIC of cefixime (CFM): 0.25 µg/mL
  MIC of ceftibuten (CTB): 0.125 µg/mL
E. coli ESBL 5; with inhibitor at 4 μg/mL
  MIC of cefalexin (LEX): 1 µg/mL
  MIC of cefdinir (CDR): 1 µg/mL
  MIC of cefixime (CFM): 1 µg/mL
  MIC of ceftibuten (CTB): 0.5 µg/mL
K. pneumoniae BAA 1705; with inhibitor at 4 μg/mL
  MIC of cefalexin (LEX): >32 µg/mL
  MIC of cefdinir (CDR): >32 µg/mL
  MIC of cefixime (CFM): >32 µg/mL
  MIC of ceftibuten (CTB): 8 µg/mL
E. coli 2806; with inhibitor at 4 μg/mL
  MIC of cefalexin (LEX): 0.25 µg/mL
  MIC of cefdinir (CDR): 0.25 µg/mL
  MIC of cefixime (CFM): 1 µg/mL
  MIC of ceftibuten (CTB): 0.25 µg/mL
K. pneumoniae KPN 508; with inhibitor at 4 μg/mL
  MIC of cefalexin (LEX): 0.125 µg/mL
  MIC of cefdinir (CDR): 0.125 µg/mL
  MIC of cefixime (CFM): 0.25 µg/mL
  MIC of ceftibuten (CTB): 0.06 µg/mL
K. pneumoniae 115468; with inhibitor at 4 μg/mL
  MIC of cefalexin (LEX): 0.06 µg/mL
  MIC of cefdinir (CDR): 0.06 µg/mL
  MIC of cefixime (CFM): 0.125 µg/mL
  MIC of ceftibuten (CTB): 0.25 µg/mL
K. pneumoniae ESBL 7 #2; with inhibitor at 4 μg/mL
  MIC of cefalexin (LEX): >32 µg/mL
  MIC of cefdinir (CDR): >32 µg/mL
  MIC of cefixime (CFM): >32 µg/mL
  MIC of ceftibuten (CTB): >32 µg/mL
K. oxytoca 176877; with inhibitor at 4 μg/mL
  MIC of cefalexin (LEX): 2 µg/mL
  MIC of cefdinir (CDR): 2 µg/mL
  MIC of cefixime (CFM): 0.25 µg/mL
  MIC of ceftibuten (CTB): 0.125 µg/mL
E. coli SI-AIRT-4; with inhibitor at 4 μg/mL
  MIC of cefalexin (LEX): 0.25 µg/mL
  MIC of cefdinir (CDR): 0.25 µg/mL
  MIC of cefixime (CFM): 0.25 µg/mL
  MIC of ceftibuten (CTB): 0.5 µg/mL
K. pneumoniae 170375; with inhibitor at 4 μg/mL
  MIC of cefalexin (LEX): 1 µg/mL
  MIC of cefdinir (CDR): 1 µg/mL
  MIC of cefixime (CFM): 0.5 µg/mL
  MIC of ceftibuten (CTB): 0.06 µg/mL
K. pneumoniae KI (KCl); with inhibitor at 4 μg/mL
  MIC of cefalexin (LEX): 0.125 µg/mL
  MIC of cefdinir (CDR): 0.125 µg/mL
  MIC of cefixime (CFM): 0.125 µg/mL
  MIC of ceftibuten (CTB): 0.06 µg/mL
K. pneumoniae SI-KP NO30; with inhibitor at 4 μg/mL
  MIC of cefalexin (LEX): 0.125 µg/mL
  MIC of cefdinir (CDR): 0.125 µg/mL
  MIC of cefixime (CFM): 0.06 µg/mL
  MIC of ceftibuten (CTB): 0.06 µg/mL
[1]; with inhibitor at 4 μg/mL
  Cefdinir MIC50: 0.5 µg/mL
  Cefdinir MIC90: 2 µg/mL
  Cefixime MIC50: 0.5 µg/mL
  Cefixime MIC90: 2 µg/mL
  Cefpodoxime MIC50: 0.5 µg/mL
  Cefpodoxime MIC90: 4 µg/mL
  Ceftibuten MIC50: 0.25 µg/mL
  Ceftibuten MIC90: 2 µg/mL
  Cephalexin MIC50: 16 µg/mL
  Cephalexin MIC90: 32 µg/mL
K. pneumoniae ESBL 10; with inhibitor at 4 μg/mL
  MIC of cefalexin (LEX): 0.5 µg/mL
  MIC of cefdinir (CDR): 0.5 µg/mL
  MIC of cefixime (CFM): 0.125 µg/mL
  MIC of ceftibuten (CTB): 0.125 µg/mL
